US20230000808A1, “COMPOSITIONS AND METHODS EXCLUDING OR WITH REDUCED GLUTAMINE FOR THE TREATMENT OF HEMOGLOBINOPATHIES AND THALASSEMIAS” (AXCELLA HEALTH INC., priority 2019, published 2023)

Legend:
ICAM-1 = ICAM-1 cell integrated intensity in HLMVEC treated with TNF-α (immunofluorescence); assay type: cell-based, human; details: HLMVEC + 0.5 ng/mL TNF-α, 24 h; amino acids 20x HMDB, Nac/Cit/Car 5 mM as bracketed
Method: (§1) Primary Human Lung Microvascular Endothelial Cells (HLMVEC; Lonza) were seeded at 6,000 cells per well in Endothelial Cell Growth Basal Medium-2 (Lonza) supplemented with Fetal Bovine Serum (FBS; Lonza), human EGF (Lonza), human VEGF (Lonza), R3-Insulin-like Growth Factor-1 (Lonza), ascorbic acid (Lonza), hydrocortisone (Lonza), human FGF-beta (Lonza), and gentamicin/amphotericin-b (Lonza) in a 96-well plate (Thermo Fisher). The cells were incubated for 45 minutes at room temperature, then incubated overnight at 37° C./5% CO2.
(§2) Following overnight incubation, cell were washed once with 150 μL of Dulbecco's phosphate buffered saline (DPBS; Gibco), and then treated with Endothelial Basal Medium MCB-131 (amino acid, glucose, sodium pyruvate, and phenol red free; US Biologicals) containing a defined custom amino acid concentration based on physiological concentrations in blood of patients with SCD (thus recapitulating observed metabolic imbalances such as the depletion of certain essential amino acids including arginine and aspartate and enrichment of certain non-essential amino acids including glutamate and asparagine), dialyzed FBS (Hyclone), human EGF (Lonza), human VEGF (Lonza), R3-Insulin-like Growth Factor-1 (Lonza), ascorbic acid (Lonza), hydrocortisone (Lonza), human FGF-beta (Lonza), and gentamicin/amphotericin-b (Lonza), glucose, 10 mM HEPES, sodium pyruvate, and sodium bicarbonate supplemented with one of the following: • a. PBS (vehicle control), • b. 0.5 ng/mL Tumor Necrosis Factor alpha (TNFα) and PBS, or; • c. 0.5 ng/mL TNF-α and amino acid treatments at 20× mean physiological concentrations in plasma based on values published in the Human Metabolome Database (HMDB) in PBS.
(§3) After 24 hours of treatment, cells were washed once with 150 μL of DPBS (Gibco), then fixed with 4% paraformaldehyde. Following fixation, cells were stained with anti-ICAM-1 [MEM-111] (mouse IgG2a anti-human; abcam) and anti-VCAM1 [1.4C3] (mouse IgG1, K anti-human; abcam) primary antibodies at 1000×, and 100× dilutions respectively. Cells were then stained with Goat anti-Mouse IgG2a Cross-Adsorbed Secondary Antibody, Alexa Fluor 594 (Invitrogen) and Goat anti-Mouse IgG1 Cross-Adsorbed Secondary Antibody, Alexa Fluor 647 (Invitrogen) secondary antibodies. Nuclei were stained with Hoechst 3342 (Life Technologies).
(§4) Antibody binding was detected by fluorescence microscopy using a high content imager (Molecular Devices). Images were analyzed using MetaXpress 6 software to determine the integrated intensity per cell for each wavelength corresponding to ICAM-1 or VCAM-1.

HLMVEC = assay: META-rank score, composite of VCAM1, ICAM1 and IL6 in the HLMVEC model; assay type: cell-based, human; details: HLMVEC + TNF-α; lower score = more optimal; 20x HMDB / 5 mM
Method: The ability of single amino acids and combinations to simultaneously impact these phenotypes was measured by a META-rank score (Tables 17 and 18). META-rank score is a composite measure that considers the optimal impact on all 3 phenotypes (e.g. decrease VCAM1, ICAM1, and IL6) in the HLMVEC model.

VCAM-1 = VCAM-1 cell integrated intensity in HLMVEC treated with TNF-α (immunofluorescence); assay type: cell-based, human; details: HLMVEC + 0.5 ng/mL TNF-α, 24 h; amino acids 20x HMDB, Nac/Cit/Car 5 mM as bracketed
Method: as §1, §2, §3, §4

IL-6 [1] = assay: Secreted IL-6 in HLMVEC treated with TNF-α (FirePlex); assay type: cell-based, human; details: HLMVEC + 0.5 ng/mL TNF-α, 24 h; amino acids 20x HMDB, Nac/Cit/Car 5 mM as bracketed
Method: as §1, §2
Supernatants were analyzed for IL-6 concentrations using a Human Cytokines FirePlex-HT Panel 1 kit (abcam) according to the manufacturer-supplied instructions. Particles were imaged on a high content imager (Molecular Devices), and results were interpolated from a standard curve with FirePlex Analysis Workbench Software (abcam) according manufacturer's recommendations.

IL-6 [2] = assay: LPS-induced IL-6 secretion in primary human monocyte-derived macrophages (ELISA); assay type: cell-based; design: Donor 1 IL-6 Measurements Mean: unit not given here; details: for Donor 1 IL-6 Measurements Mean / Donor 2 IL-6 Measurements Mean: LPS, baseline subtracted
Method: (§5) Primary human PMBC derived macrophages were seeded on day 0 at 3.0×10^4 cells per well in 96-well microplates (ThermoFisher) in Dulbecco's Modified Eagle Medium (DMEM) (Gibco) supplemented with penicillin-streptomycin (Hyclone) and 10% heat inactivated fetal bovine serum (HI-FBS) (Atlanta Bio) and incubated overnight at 37° C., 5% CO2. On day 1, cells were washed once with 150 μl per well DPBS (Gibco) and treated with 75 μl of: • a. […] The same medium described above with one amino acid at various concentrations including complete dropout. […] On day 3, the supernatant was collected and immediately frozen in −80° C. freezer. Cells were washed once with 150 μl DPBS and viability was assessed using the WST-8 Cell Proliferation Cytotoxicity Assay (Dojindo). […] Protein levels in supernatant samples were analyzed by ELISA for IL-6 and TNFα using commercially available kits (R&D Systems) according to manufacturer-supplied protocols.

TNFα = assay: LPS-induced TNF-α secretion in primary human monocyte-derived macrophages (ELISA); assay type: cell-based; details: for TNF-α Measurements Mean: LPS, baseline subtracted
Method: as §5

[3] = Donor 2, Conc. 153 μM (baseline)

NCCC[C@H](N)C(=O)O [Orn]
ICAM-1 Cell Integrated Intensity Median (ICAM-1): −0.197
Meta-Rank (Table 18) (HLMVEC): 6.5
Metarank (Table 17) (HLMVEC): 11
VCAM-1 Cell Integrated Intensity Median (VCAM-1): −0.196
Secreted IL6 Median (IL-6 [1]): −0.378

N=C(N)NCCC[C@H](N)C(=O)O [Arg]
ICAM-1 Cell Integrated Intensity Median (ICAM-1): −0.046
Metarank (Table 17) (HLMVEC): 19
VCAM-1 Cell Integrated Intensity Median (VCAM-1): −0.001
Secreted IL6 Median (IL-6 [1]): −0.224

CC(C)[C@H](N)C(=O)O [Val]
ICAM-1 Cell Integrated Intensity Median (ICAM-1): 0.167
Meta-Rank (Table 18) (HLMVEC): 25.5
Metarank (Table 17) (HLMVEC): 18
VCAM-1 Cell Integrated Intensity Median (VCAM-1): 0.315
Secreted IL6 Median (IL-6 [1]): −0.224

N[C@@H](CO)C(=O)O [Ser]
ICAM-1 Cell Integrated Intensity Median (ICAM-1): 0.076
Meta-Rank (Table 18) (HLMVEC): 19
Metarank (Table 17) (HLMVEC): 23
VCAM-1 Cell Integrated Intensity Median (VCAM-1): 0.139
Secreted IL6 Median (IL-6 [1]): −0.153

NCCCC[C@H](N)C(=O)O [Lys]
ICAM-1 Cell Integrated Intensity Median (ICAM-1): 0.064
Meta-Rank (Table 18) (HLMVEC): 15.5
Metarank (Table 17) (HLMVEC): 29
VCAM-1 Cell Integrated Intensity Median (VCAM-1): 0.025
Secreted IL6 Median (IL-6 [1]): 0.132

CC(C)C[C@H](N)C(=O)O [Leucine]
Donor 1 IL-6 Measurements Mean (IL-6 [2]; Conc. 153 μM (baseline)): 0
Donor 1 IL-6 Measurements Mean (IL-6 [2]; Conc. 3054 μM): 244.9743
Donor 1 IL-6 Measurements Mean (IL-6 [2]; Conc. 7635 μM): −69.9873
Donor 1 IL-6 Measurements Mean (IL-6 [2]; Conc. 15270 μM): 84.46
Donor 2 IL-6 Measurements Mean (IL-6 [2]; [3]): 7.11E−15
Donor 2 IL-6 Measurements Mean (IL-6 [2]; Donor 2, Conc. 3054 μM): 29.61
Donor 2 IL-6 Measurements Mean (IL-6 [2]; Donor 2, Conc. 7635 μM): 30.46
Donor 2 IL-6 Measurements Mean (IL-6 [2]; Donor 2, Conc. 15270 μM): 47.6
effect on LPS-induced IL-6 secretion (IL-6 [2]; Donor 2, Two Way ANOVA Dunnett): increased
TNF-α Measurements Mean (TNFα; Donor 1, Conc. 153 μM (baseline)): 0
TNF-α Measurements Mean (TNFα; Donor 1, Conc. 3054 μM): 42.04
TNF-α Measurements Mean (TNFα; Donor 1, Conc. 7635 μM): −23.04
TNF-α Measurements Mean (TNFα; Donor 1, Conc. 15270 μM): −46.21
TNF-α Measurements Mean (TNFα; [3]): 0
TNF-α Measurements Mean (TNFα; Donor 2, Conc. 3054 μM): 31.74
TNF-α Measurements Mean (TNFα; Donor 2, Conc. 7635 μM): 41.98
TNF-α Measurements Mean (TNFα; Donor 2, Conc. 15270 μM): 46.69
effect on LPS-induced TNF-α secretion (TNFα; Donor 2, Two Way ANOVA Dunnett): increased
